Columns and labels:
[1] = molecular target: T1, Arabidopsis HPPD (SEQ ID NO:53) (Arabidopsis thaliana, UniProt P93836); test: HPPD activity assay (HGA by HPLC), wildtype enzyme; assay type: biochemical; conditions: Arabidopsis enzyme
T1 construct: His6 (N); made in house; host or cells: E. coli BL21 (DE3)
T1 sequence (P93836 1-445): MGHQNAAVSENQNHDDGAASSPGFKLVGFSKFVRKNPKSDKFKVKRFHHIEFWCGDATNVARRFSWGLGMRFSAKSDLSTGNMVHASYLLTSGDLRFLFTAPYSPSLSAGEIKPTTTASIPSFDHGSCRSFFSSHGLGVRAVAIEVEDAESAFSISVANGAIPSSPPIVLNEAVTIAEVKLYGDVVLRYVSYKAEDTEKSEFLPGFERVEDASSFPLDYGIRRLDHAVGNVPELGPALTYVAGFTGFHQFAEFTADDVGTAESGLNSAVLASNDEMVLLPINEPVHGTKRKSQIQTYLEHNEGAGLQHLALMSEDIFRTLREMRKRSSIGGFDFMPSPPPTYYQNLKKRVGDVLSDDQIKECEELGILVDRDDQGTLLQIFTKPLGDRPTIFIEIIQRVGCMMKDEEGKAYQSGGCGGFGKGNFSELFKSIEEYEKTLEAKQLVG
Protocol: (§1) HPPD produces homogentisic acid and CO2 from 4-hydroxyphenylpyruvate (4-HPP) and O2. The activity assay for HPPD is based on the analysis of homogentisic acid by reversed phase HPLC.
(§2) The assay mixture can contain 150 mM potassium phosphate buffer pH 7.0, 50 mM L-ascorbic acid, 100 μM Catalase (Sigma-Aldrich), 1 μM FeSO4 and 0.2 units of purified HPPD enzyme in a total volume of 505 μl. 1 unit is defined as the amount of enzyme that is required to produce 1 nmol of HGA per minute at 20° C.
(§3) After a preincubation of 30 min the reaction is started by adding 4-HPP to a final concentration of 0.05 mM. The reaction is allowed to proceed for 45 min at room temperature. The reaction is stopped by the addition of 50 μl of 4.5 M phosphoric acid. The sample is filtered using a […] pore size PVDF filtration device.
(§4) 5 μl of the cleared sample is analyzed on an UPLC HSS T3 column (particle size 1.8 μm, dimensions 2.1×50 mm; Waters) by isocratic elution using 90% 20 mM NaH2PO4 pH 2.2, 10% methanol (v/v).
(§5) HGA is detected electrochemically at 750 mV (mode: DC; polarity: positive) and quantified by integrating peak areas (Empower software; Waters).
(§6) Inhibitors are dissolved in DMSO (dimethylsulfoxide) to a concentration of 0.5 mM. From this stock solution serial five-fold dilutions are prepared in DMSO, which are used in the assay. The respective inhibitor solution accounts for 1% of the assay volume. […] Activities are normalized by setting the uninhibited enzyme activity to 100%. IC50 values are calculated using non-linear regression.
(§7) Using methods which are described in the above examples or well known in the art, purified, recombinant wildtype HPPD enzymes are characterized with respect to their kinetic properties and sensitivity towards HPPD inhibiting herbicides. Apparent michaelis constants (Km) and maximal reaction velocities (Vmax) are calculated by non-linear regression with the software GraphPad Prism 5 (GraphPad Software, La Jolla, USA) using a substrate inhibition model. […] Weighted means (by standard error) of Km and IC50 values are calculated from at least three independent experiments.
(§8) Field performance of the HPPD enzyme, which is used as a herbicide tolerance trait may depend not only on its lack of sensitivity towards HPPD inhibiting herbicides but also on its activity. To assess the potential performance of a herbicide tolerance trait a tolerance index (TI) is calculated using the following formula: […]
(§9) Easy comparison and ranking of each trait is enabled by normalizing tolerance indexes on Arabidopsis wild-type HPPD.

[2] = molecular target: T2, Hordeum HPPD (SEQ ID NO:2) (Hordeum vulgare, UniProt O48604, A164G/R146V/R147D/R148G); test: HPPD activity assay (HGA by HPLC), wildtype enzyme; assay type: biochemical; conditions: Hordeum enzyme
T2 construct: subcloned into a modified pET24D (Novagen) expression vector resulting in N-terminally His-tagged expression constructs; His tag (N); made in house; host or cells: E. coli BL21 (DE3)
T2 sequence (O48604 whole entry R146V/R147D/R148G/A164G): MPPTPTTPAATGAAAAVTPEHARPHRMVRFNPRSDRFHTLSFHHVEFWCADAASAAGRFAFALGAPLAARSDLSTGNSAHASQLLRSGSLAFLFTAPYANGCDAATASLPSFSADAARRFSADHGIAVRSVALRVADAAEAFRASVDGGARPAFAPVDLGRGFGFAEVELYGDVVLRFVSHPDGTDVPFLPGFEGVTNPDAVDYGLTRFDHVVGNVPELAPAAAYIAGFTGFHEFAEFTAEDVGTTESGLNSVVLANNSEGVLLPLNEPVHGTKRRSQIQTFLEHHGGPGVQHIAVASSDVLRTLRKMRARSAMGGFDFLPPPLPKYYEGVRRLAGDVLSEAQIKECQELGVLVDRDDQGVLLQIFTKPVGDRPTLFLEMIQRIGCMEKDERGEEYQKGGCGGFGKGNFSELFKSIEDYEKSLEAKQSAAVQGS
Protocol: as §1, §2, §3, §4, §5, §6, §7, §8, §9

[3] = test system: Arabidopsis wild-type control plants; test: Arabidopsis germination/growth inhibition assay in 48-well plates; assay type: in vivo, Arabidopsis thaliana; conditions: plant growth IC50 relative to wildtype
Protocol: (§10) Tolerance to N-heterocyclyl-arylcarboxamides can also be assessed in Arabidopsis. In this case transgenic Arabidopsis thaliana plants are assayed for improved tolerance to N-heterocyclyl-arylcarboxamides in 48-well plates. Seeds are surface sterilized by stirring for 5 min in ethanol+water (70+30 by volume), rinsing one time with ethanol+water (70+30 by volume) and two times with a sterile, deionized water. The seeds are resuspended in 0.1% agar dissolved in water (w/v). Four to five seeds per well are plated on solid nutrient medium consisting of half-strength Murashige Skoog nutrient solution, pH 5.8 (Murashige and Skoog (1962) Physiologia Plantarum 15: 473-497). Compounds are dissolved in dimethylsulfoxid (DMSO) and added to the medium prior solidification (final DMSO concentration 0.1%). Multi well plates are incubated in a growth chamber at 22° C., 75% relative humidity and 110 μmol Phot*m-2*s-1 with 14:10 h light: dark photoperiod. Seven to ten days after seeding growth inhibition is evaluated by comparison to wild type plants. Tolerance factor is calculated by dividing the plant growth IC50 value of transgenic plants containing a HPPD and/or HST sequence by that of wildtype plants.

[4] = test system: transgenic Arabidopsis plants overexpressing HPPD (Seq ID: 53); test: as above; assay type: in vivo, Arabidopsis thaliana; conditions: plant growth IC50 of transgenic divided by wildtype; HPPD (Seq ID: 53) overexpression
Protocol: as §10

[5] = apparent michaelis constant, read-out: Km [μM] (4-HPP)

| SMILES | Km [1, 5] | kcat ([1]; turnover number) | Km [2, 5] | kcat ([2]; turnover number) | Tolerance factor towards Inhibitor 2 [3] | Tolerance factor towards Inhibitor 2 [4] |
| --- | --- | --- | --- | --- | --- | --- |
| O=C(O)C(=O)Cc1ccc(O)cc1 [Inhibitor 4-HPP, 4-hydroxyphenylpyruvate, reference compound] | 13 µM | 12.9 s⁻¹ | 26 µM | 11.5 s⁻¹ |  |  |
| COc1nonc1NC(=O)c1ccc(S(C)(=O)=O)c(S(C)(=O)=O)c1C [Inhibitor 2, N-(4-methoxy-1,2,5-oxadiazol-3-yl)-2-methyl-3,4-bis(methylsulfonyl)benzamide] |  |  |  |  | 1 | 12 |
